Consider 18 molecules from patent US9867373B2, “Fungicidal composition having synergistic effect” (JIANGSU HUIFENG AGROCHEMICAL CO., LTD., priority 2013, dated 2018).

≈ marks a conversion by molar mass, not a printed value.

Experiment [1] has as its system downy mildew pathogens of cucumber. Description: Toxicity test on downy mildew pathogens of cucumber (disease index and control effect on whole cucumber plant). The experiment is classed as in vivo. The settings on record: for ATI: actual toxicity index.
In experiment [2] the test system is oomycetes. The conditions noted are these: background statement; cited from earlier work.
Experiment [3] relates to rust pathogens of wheat. The experiment is described as follows: whole plant or invertebrate. The format is in vivo.

One may read the EC50 as the concentration needed to bring the measured effect to its halfway point. High values mean lower potency in that assay, low ones higher potency in that assay. Take `O=C(S)c1cccc2nnsc12` [Acibenzolar, acibenzolar]: in experiment [1] (Table 8, with acibenzolar), the EC50 is 5.38 µg/mL (≈ 27.4 µM) and the ATI turned out to be 91.45.

`N#Cc1sc2c(=O)c3ccccc3c(=O)c=2sc1C#N` [Dithianon, dithianon] gave an EC50 in experiment [1] (Cucumis sativus) of 5.34 µg/mL (≈ 18 µM). Besides, in experiment [1] (Table 5, with dithianon), the ATI is given as 88.39.

Molecule `COc1ccc(C(=CC(=O)N2CCOCC2)c2ccc(Cl)cc2)cc1OC` [Dimethomorph, dimethomorph] had an ATI in experiment [1] (Table 2, with dimethomorph) of 63.9. Besides, in experiment [2], the “concentration at which an inhibitory effect is exerted” value is below 0.25 µg/mL.

In experiment [1] (Cucumis sativus), `CCC(C)(NC(=O)c1cc(Cl)c(C)c(Cl)c1)C(=O)CCl` (stereo not shown) [Zoxamide, zoxamide] yielded an EC50 of 5.11 µg/mL (≈ 15.2 µM). In experiment [1] (Table 7, with zoxamide), this molecule registered an ATI of 95.69.

For the molecule `CO/C=C(/C(=O)OC)c1ccccc1COc1cccc(C(F)(F)F)n1` [Picoxystrobin, picoxystrobin], in experiment [3] (Table 15, with picoxystrobin), the concentration for a half-maximal effect (EC50) turned out to be 5.68 µg/mL (≈ 15.5 µM). Also, in experiment [3] (actual toxicity index, Table 15, with picoxystrobin), the ATI was found to be 87.68.

Turning to `CSC1=N[C@@](C)(c2ccccc2)C(=O)N1Nc1ccccc1` [Fenamidone, fenamidone], in experiment [1] (Cucumis sativus), a half-maximal response (EC50) required 5.12 µg/mL (≈ 16.4 µM). The molecule also yielded an ATI in experiment [1] (Table 4, with fenamidone) of 107.62.

`CC(C)OC(=O)N[C@H](C(=O)N[C@H](C)c1nc2ccc(F)cc2s1)C(C)C` [Benthiavalicarb-isopropyl, benthiavalicarb-isopropyl] registered a concentration for a half-maximal effect (EC50) in experiment [1] (Cucumis sativus) of 5.41 µg/mL (≈ 14.2 µM). In experiment [1] (Table 1, with benthiavalicarb-isopropyl), this molecule returned an ATI of 60.1.

Consider `Fc1ccc([C@]2(Cn3cncn3)O[C@H]2c2ccccc2Cl)cc1` (racemic) [Epoxiconazole, epoxiconazole], for which a half-maximal response in experiment [3] (Triticum aestivum) (EC50) required 5.29 µg/mL (≈ 16 µM).

In the case of `CC1COC(Cn2cncn2)(c2ccc(Oc3ccc(Cl)cc3)cc2Cl)O1` (stereo not shown) [Difenoconazole, difenoconazole], the EC50 in experiment [3] (Triticum aestivum) turned out to be 5.45 µg/mL (≈ 13.4 µM).

`CON=C(C(=O)OC)c1ccccc1CON=C(C)c1cccc(C(F)(F)F)c1` [Trifloxystrobin, trifloxystrobin] registered an EC50 in experiment [3] (Triticum aestivum) of 4.75 µg/mL (≈ 11.6 µM).

In experiment [1] (Table 6, with polyoxin), polyoxin returned an EC50 of 5.24 µg/mL and an ATI of 89.89.

As for `Cc1nc(C(F)(F)F)c(C(=O)Nc2c(Br)cc(OC(F)(F)F)cc2Br)s1` [Thifluzamide, thifluzamide], the EC50 in experiment [3] (Triticum aestivum) amounted to 5.12 µg/mL (≈ 9.7 µM).

Molecule `OC(Cc1ccccc1Cl)(Cn1nc[nH]c1=S)C1(Cl)CC1` (stereo not shown) [Prothioconazole, prothioconazole] came in with a half-maximal effective concentration (EC50) in experiment [3] (Triticum aestivum) of 5.12 µg/mL (≈ 14.9 µM).

In experiment [1] (Table 3, with azoxystrobin), `CO/C=C(/C(=O)OC)c1ccccc1Oc1cc(Oc2ccccc2C#N)ncn1` [Azoxystrobin, azoxystrobin] returned a half-maximal effective concentration (EC50) of 5.82 µg/mL (≈ 14.4 µM) and an ATI of 72.34.

As to `O=[N+]([O-])c1cc(C(F)(F)F)c(Cl)c([N+](=O)[O-])c1Nc1ncc(C(F)(F)F)cc1Cl` [Fluazinam, fluazinam], in experiment [1] (Cucumis sativus), the EC50 was 5.19 µg/mL (≈ 11.2 µM). Also, the ATI in experiment [1] (Table 9, with fluazinam) came to 97.88.

In experiment [3] (Triticum aestivum), `Cc1cc(C2CC2)nc(Nc2ccccc2)n1` [Cyprodinil, cyprodinil] yielded an EC50 of 5.87 µg/mL (≈ 26.1 µM).

`CC(C)NC(=O)N1CC(=O)N(c2cc(Cl)cc(Cl)c2)C1=O` [Iprodione, iprodione] displayed an EC50 in experiment [3] (Triticum aestivum) of 5.35 µg/mL (≈ 16.2 µM).

Consider `COC(=O)N(OC)c1ccccc1COc1ccn(-c2ccc(Cl)cc2)n1` [Pyraclostrobin, pyraclostrobin], for which, in experiment [3] (Triticum aestivum), the EC50 stood at 4.98 µg/mL (≈ 12.8 µM).
